Experiments:
Assay in all cases: NCI60 one-dose screen
HOP-92 = assay type: cell-based, human; settings: HOP-92, 10 μM
Description: (§1) The screening results are presented in the Supplementary Materials (Table S1), where the cytotoxicity was determined for the 10 µM concentration. […] The negative numbers indicate significant decreases in the cell number. […] Compared to the reference chrysin (2), all phosphonium hybrids (3a–h) had significant antiproliferative activities. […] At the same time, it should be noted that more than 60% average reduction was also obtained in the case of the other examined conjugates (3a–h).
(§2) A detailed description of the NCI screening procedures, including the one-dose and five-dose tests, can be found in the Supplementary Materials, on the website of NCI [39], and in our previous work.
(§3) A detailed description of the NCI screening procedures can also be found on the website of NCI [39], and in our […]
(§4) All candidates were examined at first at a single high dose (10 μM) in the full NCI60 cell panel. The value reported for the one-dose test is growth relative to the no-drug control and relative to the time zero number of cells. This made possible the disclosure of both growth inhibition (numbers between 0 and 100) and lethality (numbers less than 0). For example, a value of 100 means no growth inhibition. A value of 20 would mean 80% growth inhibition. A value of 0 means no net growth over the course of the analysis. A value of −20 would mean 20% lethality. A value of −100 means all cells are dead. […]
(§5) concentration levels. The human tumor cell lines of the cancer screening panel were grown in RPMI 1640 medium containing 5% fetal bovine serum and 2 mM l-glutamine. Characteristically, cells were injected in 96-well microtiter plates in 0.1 mL at plating densities ranging from 5000 to 40,000 cells/well, depending on the doubling time of individual cell lines. After cell inoculation, the microtiter plates were incubated at 37 °C, 5% carbon dioxide, 95% air, and 100% relative humidity for 24 hours before the addition of tested compounds. After 24 hours, 2 plates of each cell line were fixed in situ with Cl3COOH (TCA), to represent a measurement of the cell population for each cell line at the time of drug addition (tz). Tested compounds were solubilized in DMSO at 400-fold the desired final maximum test concentration and stored frozen before application. In the course of the drug addition, an aliquot of frozen concentrate was thawed and diluted to twice the desired final maximum test concentration with a complete medium containing 50 μg mL−1 gentamicin. Additional four, 10-fold or ½ log serial dilutions were produced to furnish a total of five drug concentrations plus control. Aliquots of 0.1 mL of these different drug dilutions were added to the appropriate microtiter wells already containing 0.1 mL of medium, resulting in the required final drug concentrations.
(§6) Following drug addition, the plates were incubated at 37 °C, 5% carbon dioxide, 95% air, and 100% relative humidity for an additional 48 hours. For adherent cells, the test was finished by the addition of cold Cl3COOH. Cells were fixed in situ by the addition of 50 μL of cold 50% (w/v) Cl3COOH, and incubated at 4 °C for 1 hour. The supernatant was discarded, and the plates were washed with H2O (5×) and dried in air. Sulforhodamine B (SRB) solution (0.1 mL) at 0.4% (w/v) in 1% CH3COOH was added to each well, and plates were incubated at RT for 10 min. After staining, the unbound dye was removed by washing five times with 1% CH3COOH, and the plates were dried in the air. The bound stain is afterward solubilized with a 10 mM trizma base, and the absorbance is read on an automated plate reader at λ = 515 nm. Utilizing the seven absorbance measurements [time zero (tz), control growth (c), and test growth in the presence of the drug at the five concentration levels (ti)], the percentage growth was determined at each of the drug concentration levels. Growth inhibition (%) was calculated as:
(§7) [(ti − tz)/(c − tz)] × 100, for concentrations where ti ≥ tz (1) […]

PC-3 = assay type: cell-based, human; settings: PC-3, 10 μM
Description: as §1, §2, §3, §4, §5, §6, §7

RXF 393 = assay type: cell-based; settings: Homo sapiens; RXF 393, 10 μM; read-out: Growth percent
Description: as §1, §2, §3, §4, §5, §6, §7

HCC-2998 = assay type: cell-based; settings: Homo sapiens; HCC-2998, 10 μM; read-out: Growth percent
Description: as §1, §2, §3, §4, §5, §6, §7

RPMI-8226 = assay type: cell-based; settings: Homo sapiens; RPMI-8226, 10 μM; read-out: Growth percent
Description: as §1, §2, §3, §4, §5, §6, §7

SF-295 = assay type: cell-based; settings: Homo sapiens; SF-295, 10 μM; read-out: Growth percent
Description: as §1, §2, §3, §4, §5, §6, §7

SF-539 = assay type: cell-based; settings: Homo sapiens; SF-539, 10 μM; read-out: Growth percent
Description: as §1, §2, §3, §4, §5, §6, §7

ACHN = assay type: cell-based; settings: Homo sapiens, read-out: Growth percent
Description: as §1, §2, §3, §4, §5, §6, §7

NCI-H23 = assay type: cell-based; settings: Homo sapiens; NCI-H23, 10 μM; read-out: Growth percent
Description: as §1, §2, §3, §4, §5, §6, §7

OVCAR-4 = assay type: cell-based; settings: Homo sapiens; OVCAR-4, 10 μM; read-out: Growth percent
Description: as §1, §2, §3, §4, §5, §6, §7

SW-620 = assay type: cell-based; settings: Homo sapiens; SW-620, 10 μM; read-out: Growth percent
Description: as §1, §2, §3, §4, §5, §6, §7

SK-MEL-5 = assay type: cell-based; settings: Homo sapiens; SK-MEL-5, 10 μM; read-out: Growth percent
Description: as §1, §2, §3, §4, §5, §6, §7

CAKI-1 = assay type: cell-based; settings: Homo sapiens; CAKI-1, 10 μM; read-out: Growth percent
Description: as §1, §2, §3, §4, §5, §6, §7

SNB-19 = assay type: cell-based; settings: Homo sapiens; SNB-19, 10 μM; read-out: Growth percent
Description: as §1, §2, §3, §4, §5, §6, §7

HS 578T = assay type: cell-based; settings: Homo sapiens, read-out: Growth percent
Description: as §1, §2, §3, §4, §5, §6, §7

OVCAR-8 = assay type: cell-based; settings: Homo sapiens; OVCAR-8, 10 μM; read-out: Growth percent
Description: as §1, §2, §3, §4, §5, §6, §7

NCI-H460 = assay type: cell-based; settings: Homo sapiens; NCI-H460, 10 μM; read-out: Growth percent
Description: as §1, §2, §3, §4, §5, §6, §7

SNB-75 = assay type: cell-based; settings: Homo sapiens; SNB-75, 10 μM; read-out: Growth percent
Description: as §1, §2, §3, §4, §5, §6, §7

SR = assay type: cell-based, human; settings: 10 μM
Description: as §1, §2, §3, §4, §5, §6, §7

UACC-62 = assay type: cell-based, human; settings: UACC-62, 10 μM
Description: as §1, §2, §3, §4, §5, §6, §7

T-47D = assay type: cell-based, human; settings: 10 μM
Description: as §1, §2, §3, §4, §5, §6, §7

Row | SMILES | Growth percent (HOP-92) [%] | Growth percent (PC-3) [%] | activity at 10 µM (RXF 393) [%] | activity at 10 µM (HCC-2998) [%] | activity at 10 µM (RPMI-8226) [%] | activity at 10 µM (SF-295) [%] | activity at 10 µM (SF-539) [%] | activity at 10 µM (ACHN) [%] | activity at 10 µM (NCI-H23) [%] | activity at 10 µM (OVCAR-4) [%] | activity at 10 µM (SW-620) [%] | activity at 10 µM (SK-MEL-5) [%] | activity at 10 µM (CAKI-1) [%] | activity at 10 µM (SNB-19) [%] | activity at 10 µM (HS 578T) [%] | activity at 10 µM (OVCAR-8) [%] | activity at 10 µM (NCI-H460) [%] | activity at 10 µM (SNB-75) [%] | Growth percent (SR) [%] | Growth percent (UACC-62) [%] | other results
1 | O=c1cc(-c2ccccc2)oc2cc(OCCCC[P+](C3CCCCC3)(C3CCCCC3)C3CCCCC3)cc(O)c12 [3e] | −75.86 | −70.81 | -80 | -84.7 | -62.6 | -87 | 87.1 | -72.5 | -88.5 | -64.5 | -76.4 | -100 | -90.8 | -87.6 | -62.1 | -86.4 | -66 | -80.5 |  |  | 
2 | COc1c(C)cc([P+](CCCCOc2cc(O)c3c(=O)cc(-c4ccccc4)oc3c2)(c2cc(C)c(OC)c(C)c2)c2cc(C)c(OC)c(C)c2)cc1C [3f] | −68.75 | −76.48 | -66.9 | -73.5 | -42.9 | -63.6 | -89.2 | -88.4 | -77.3 | -65.5 | -62.4 | -75.2 | -51.6 | -76.8 | -57.7 | -68.1 | -58.6 | -71 | 23.00 | −80.44 | Growth percent (T-47D): −52.77%
3 | Cc1ccccc1[P+](CCCCOc1cc(O)c2c(=O)cc(-c3ccccc3)oc2c1)(c1ccccc1C)c1ccccc1C [3g] | −98.85 | −97.92 | -98.7 | -98.2 | -98.5 | -98.7 | -97.7 | -97 | -98.4 | -98.7 | -96.4 | -97.9 | -97.2 | -97.4 | -98.3 | -95.9 | -91.5 | -99 |  | −97.94 | 
4 | O=c1cc(-c2ccccc2)oc2cc(OCCCC[P+](c3ccccc3)(c3ccccc3)c3ccccn3)cc(O)c12 [3h] | −69.74 | −35.64 | -80.5 | -88.5 | -35.3 | -92.7 | -96.5 | -98 | -89.3 | -51.2 | -88.3 | -96.3 | -71.2 | -91.6 | -35.8 | -91.6 | -84.2 | -47.3 | 0.35 | −73.54 | Growth percent (T-47D): −49.47%

Source: PMC12652692, “Synthesis and In Vitro Anticancer Evaluation of Novel Phosphonium Derivatives of Chrysin” (International Journal of Molecular Sciences, 2025)
